Data taken from patent US20190315711A1 (eXIthera Pharmaceuticals, Inc., priority 2016, published 2019).
pIC50: −log10 of the molar value.

Molecular target: human Factor XIa (Homo sapiens, UniProt P03951)
Experiment: Factor XIa enzyme inhibition assay (dose response, fluorogenic AMC substrate)
Format: biochemical
Design: Enzyme: Factor XIa
Conditions: purified enzyme; substrate 50 μM, enzyme 0.25 nM; read-out: hFXIa IC50
Method: • Assay buffer: 20 mM Hepes, pH 7.4; 150 mM NaCl; 0.02% Tween 20 • Compounds: 10 mM stocks in DMSO • Substrate: 20 mM Glp-Pro-Arg-AMC, 25 mg/2.3 mL H2O (store at +4° C.) [Factor XIa, thrombin, and trypsin] • 20 mM Pro-Phe-Arg-AMC (Bachem I-1295), 25 mg/2.2 mL H2O or Boc-Leu-Gly-Arg-AMC (Bachem I-1105), 25 mg/2.07 mL H2O (store at +4° C.) [Factor Xa] • Enzyme: Factor XIa; 0.25 M in 50% glycerol (20 μg/mL) • Trypsin; 0.2 μM in 50% glycerol (4.8 μg/mL) • Thrombin; 0.2 μM in 50% glycerol (7.34 μg/mL) • Factor Xa; 0.2 μM in 50% glycerol (9.2 μg/mL)
• 1. Dilute the substrate to 100 μM in assay buffer (30 μL/6 mL). The enzyme is diluted to 0.5 nM just prior to use (12 L/6 mL for Factor XIa; 15 μL/6 mL for all of the rest.) • 2. Pipette 50 μL of substrate into each well of the 96 well (12×8) microtiter plate. (Column 1 is used as the 100% activity control and receives no compound, and Column 12 is the blank and receives no enzyme.) Add an additional 46 μL to column 2. • 3. Pipette 4 μL of each compound into the appropriate well in column 2 of the plate (unknowns assayed in triplicate, standard assayed in duplicate). The final compound concentration will be 1/50th of the stock. • 4. Serially two-fold dilute the compound by mixing the sample in column 2, removing 50 μL to the next well (column 3), mix and remove to column 4, etc. until column 11. After mixing column 11, remove 50 μL and discard. • 5. Pipette 50 μL of buffer into column 12. Initiate the reaction by adding 50 μL of enzyme solution to each well of columns 1-11 as rapidly as possible. • 6. Read the plate in a spectrophotometer (SpectraMax) at 30° C., wherein each well is measured every 60 s for 30 min. For Factor Xa assays, each well is measured every 1 min for a total of 60 min. • 7. For Factor XIa assays, the compounds are assayed, in duplicate, at 3 different starting concentrations, 20, 2, and 0.2 μM; 1:10, 1:100, and 1:1000 dilution of 10 mM stock or at 2, 0.2, and 0.02 μM; 1:100, 1:1000, and 1:10,000 dilution of 10 mM stock. Data for each concentration are combined for graphing and data fitting. • 8. Data can be used both for estimation of IC50 and for estimation of Kon.
Potential inhibitors of Factor XIa were evaluated using the following assay.
PyroGlu-Pro-Arg-7-methylaminocourin (AMC), available from CPC Scientific, Inc., is based on the substrate pyro-Glu-Pro-Arg-pNA (S-2366), available from Diapharma Group, Inc. (Columbus, Ohio), wherein the p-nitroanaline group is replaced with 7-methylaminocoumarin (AMC).
The final concentration of the substrate in the assay was 50 μM, and the final concentration of the enzyme was 0.25 nM. Inhibitors were tested by serial dilution over an appropriate range to yield a dose response curve for determination of the inhibitors' IC50 value. The assay mixture was read every minute for 30 minutes in order to generate progress curves. The plates were read in a Spectramax m5 Multimode Plate Reader (Molecular Devices LLC, Sunnyvale, Calif.). Dose response curves were fit to Equation 1 below in which A is the maximum inhibition, B is the minimum inhibition, C is the IC50, and D is the Hill coefficient.
Y=[(A−B)/(1+(X/C)^D)]+B (Equation 1)

Sequence of human Factor XIa (P03951 388-625 limits assumed): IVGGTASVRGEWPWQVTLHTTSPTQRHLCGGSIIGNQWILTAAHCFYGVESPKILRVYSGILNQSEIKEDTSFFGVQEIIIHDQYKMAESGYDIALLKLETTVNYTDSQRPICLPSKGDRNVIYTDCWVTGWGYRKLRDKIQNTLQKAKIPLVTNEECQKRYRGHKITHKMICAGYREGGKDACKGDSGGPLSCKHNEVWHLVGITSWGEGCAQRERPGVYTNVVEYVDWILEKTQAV
Sequence of human Factor XIa (P03951 19-387 partner limits assumed): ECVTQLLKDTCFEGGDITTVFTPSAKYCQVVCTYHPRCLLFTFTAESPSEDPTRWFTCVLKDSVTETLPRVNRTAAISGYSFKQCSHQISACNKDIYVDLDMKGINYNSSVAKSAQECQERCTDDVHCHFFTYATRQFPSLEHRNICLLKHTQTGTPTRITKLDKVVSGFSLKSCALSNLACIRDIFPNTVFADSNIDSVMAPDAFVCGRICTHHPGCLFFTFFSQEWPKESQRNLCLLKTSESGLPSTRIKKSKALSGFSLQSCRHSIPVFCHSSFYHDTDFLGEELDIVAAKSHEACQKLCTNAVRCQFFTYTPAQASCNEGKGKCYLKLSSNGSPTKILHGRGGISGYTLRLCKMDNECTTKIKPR

First: CCC[C@H](NC(=O)N1C(=O)[C@H](Cc2ccnc(N)c2)[C@H]1C(=O)N(C)c1ccccc1)c1cccnc1 [Compound 69]
Second: CCC[C@@H](NC(=O)N1C(=O)[C@H](Cc2ccnc(N)c2)[C@H]1C(=O)N(C)c1ccncc1)c1cccnc1 [Compound 73]
The pIC50 of the first is lower: 7.00 to 8.00 for the first, over 8.00 for the second.

First: CN(C(=O)[C@@H]1[C@@H](Cc2ccnc(N)c2)C(=O)N1C(=O)NC(C(F)(F)F)C(F)(F)F)c1ccccc1 [Compound 71]
Second: CC[C@@H](NC(=O)N1C(=O)[C@H](Cc2ccnc(N)c2)[C@H]1C(=O)N(C)c1ccccc1)c1ccc(C)nc1 [Compound 134]
The pIC50 of the first is lower: 7.00 to 8.00 for the first, over 8.00 for the second.

First: CN(C(=O)[C@@H]1[C@@H](Cc2ccnc(N)c2)C(=O)N1C(N)=O)c1ccncc1 [Compound 72]
Second: CN(C(=O)[C@@H]1[C@@H](Cc2ccnc(N)c2)C(=O)N1C(=O)NCc1cccc(Cl)c1)c1ccncc1 [Compound 138]
The pIC50 of the first is lower: 7.00 to 8.00 for the first, over 8.00 for the second. The second is the more potent here.

`CCC[C@@H](NC(=O)N1C(=O)[C@H](Cc2ccnc(N)c2)[C@H]1C(=O)N(C)c1ncccn1)c1cccnc1` [Compound 74] and `CN(C(=O)[C@@H]1[C@@H](Cc2ccnc(N)c2)C(=O)N1C(=O)N[C@@H](c1cccnc1)C1CC1)c1ncccn1` [Compound 75] cannot be ordered by pIC50: over 8.00 for the first, over 8.00 for the second.

Compared with `Nc1cc(C[C@H]2C(=O)N(C(=O)N[C@@H](C3CCCCC3)C(F)(F)F)[C@@H]2C(=O)N2CCCc3ccccc32)ccn1` [Compound 76], `Nc1cc(C[C@H]2C(=O)N(C(=O)N[C@@H](C3CCCCC3)C(F)(F)F)[C@@H]2C(=O)Nc2ccc(Cl)cc2)ccn1` [Example 9] is lower in pIC50: 7.00 to 8.00 for the first, 6.00 to 7.00 for the second. The first is the more potent here.

`CC[C@@H](NC(=O)N1C(=O)[C@H](Cc2cc(N)ncc2F)[C@H]1C(=O)N(C)c1ccccc1)C1CCCCC1` [Compound 85] and `CC[C@@H](NC(=O)N1C(=O)[C@H](Cc2cc(N)ncc2C)[C@H]1C(=O)N(C)c1ccccc1)C1CCCCC1` [Compound 88] cannot be ordered by pIC50: under 6.00 for the first, under 6.00 for the second.

First: CC[C@@H](NC(=O)N1C(=O)[C@H](Cc2cc(N)ncc2C)[C@H]1C(=O)N(C)c1ccncc1)C1CCCCC1 [Compound 92]
Second: CC[C@@H](NC(=O)N1C(=O)[C@H](Cc2cc(C)nc(N)c2)[C@H]1C(=O)N(C)c1ccncc1)C1CCCCC1 [Compound 114]
The pIC50 of the first is lower: 7.00 to 8.00 for the first, over 8.00 for the second.

First: CC[C@@H](NC(=O)N1C(=O)[C@H](Cc2ccnc(N)c2)[C@H]1C(=O)N(C)c1ccncc1)c1ccc(F)c(F)c1 [Compound 93]
Second: CC[C@@H](NC(=O)N1C(=O)[C@H](Cc2ccnc(N)c2)[C@H]1C(=O)N(C)c1ccncc1)c1cc(F)ccc1F [Compound 110]
The pIC50 of the first is lower: 7.00 to 8.00 for the first, over 8.00 for the second. The second is the more potent here.

`CC[C@@H](NC(=O)N1C(=O)[C@H](Cc2ccnc(N)c2)[C@H]1C(=O)N(C)c1ccncc1)c1ccc(OC(F)(F)F)cc1` [Compound 94] and `CC[C@@H](NC(=O)N1C(=O)[C@H](Cc2ccnc(N)c2)[C@H]1C(=O)N(C)c1ccncc1)c1cccc(OC(F)(F)F)c1` [Compound 106] fall in the same range of pIC50: 7.00 to 8.00 for the first, 7.00 to 8.00 for the second.

`Cc1cccc(C(NC(=O)N2C(=O)[C@H](Cc3ccnc(N)c3)[C@H]2C(=O)N(C)c2ccncc2)c2cccc(C)c2)c1` [Compound 101] and `CC[C@@H](NC(=O)N1C(=O)[C@H](Cc2ccnc(N)c2)[C@H]1C(=O)N(C)c1ccncc1)c1cccc(F)c1` [Compound 103] cannot be ordered by pIC50: over 8.00 for the first, over 8.00 for the second.

Compared with `CC[C@@H](NC(=O)N1C(=O)[C@H](Cc2ccnc(N)c2)[C@H]1C(=O)N(C)c1ccncc1)c1cncnc1` [Compound 102], `CCc1cccc([C@@H](CC)NC(=O)N2C(=O)[C@H](Cc3ccnc(N)c3)[C@H]2C(=O)N(C)c2ccncc2)c1` [Compound 126] is higher in pIC50: 7.00 to 8.00 for the first, over 8.00 for the second.

`CC[C@@H](NC(=O)N1C(=O)[C@H](Cc2ccnc(N)c2)[C@H]1C(=O)N(C)c1ccncc1)c1cccc(C(F)(F)F)c1` [Compound 105] and `CC[C@@H](NC(=O)N1C(=O)[C@H](Cc2ccnc(N)c2)[C@H]1C(=O)N(C)c1ccncc1)c1cccc(F)c1F` [Compound 130] fall in the same range of pIC50: 7.00 to 8.00 for the first, 7.00 to 8.00 for the second.

First: CC[C@@H](NC(=O)N1C(=O)[C@H](Cc2ccnc(NC(C)=O)c2)[C@H]1C(=O)N(C)c1ccncc1)c1cccc(Cl)c1 [Compound 107]
Second: CC[C@@H](NC(=O)N1C(=O)[C@H](Cc2ccnc(NC)c2)[C@H]1C(=O)N(C)c1ccncc1)c1cccc(Cl)c1 [Compound 109]
The pIC50 of the first is lower: 7.00 to 8.00 for the first, over 8.00 for the second. The second is the more potent here.

`CC[C@@H](NC(=O)N1C(=O)[C@H](Cc2ccnc(N)c2)[C@H]1C(=O)N(C)c1ccncc1)c1ccccc1F` [Compound 108] and `CC[C@@H](NC(=O)N1C(=O)[C@H](Cc2ccnc(N)c2)[C@H]1C(=O)N(C)c1ccncc1)c1cccc(Cl)c1Cl` [Compound 125] cannot be ordered by pIC50: over 8.00 for the first, over 8.00 for the second.

`CC[C@@H](NC(=O)N1C(=O)[C@H](Cc2cc(C)nc(N)c2)[C@H]1C(=O)N(C)c1ccncc1)c1cccc(Cl)c1` [Compound 111] and `CC[C@@H](NC(=O)N1C(=O)[C@H](Cc2cc(C)nc(N)c2)[C@H]1C(=O)N(C)c1ccncc1)c1ccccc1` [Compound 122] cannot be ordered by pIC50: over 8.00 for the first, over 8.00 for the second.

`CC[C@@H](NC(=O)N1C(=O)[C@H](Cc2ccnc(N)c2)[C@H]1C(=O)N(C)c1cc(C)nc(C)c1)c1cccc(Cl)c1` [Compound 123] and `CC[C@@H](NC(=O)N1C(=O)[C@H](Cc2ccnc(N)c2)[C@H]1C(=O)N(C)c1cc(C)nc(C)c1)c1cccc(C)c1` [Compound 129] fall in the same range of pIC50: 7.00 to 8.00 for the first, 7.00 to 8.00 for the second.

`CC[C@@H](NC(=O)N1C(=O)[C@H](Cc2ccnc(N)c2)[C@H]1C(=O)N(C)c1ccnc(C)c1)c1cccc(C)c1` [Compound 128] and `CC[C@@H](NC(=O)N1C(=O)[C@H](Cc2ccnc(N)c2)[C@H]1C(=O)N(C)c1cccc(F)c1)c1ccc(C)nc1` [Compound 136] cannot be ordered by pIC50: over 8.00 for the first, over 8.00 for the second.

`CC[C@@H](NC(=O)N1C(=O)[C@H](Cc2cc(N)ncc2F)[C@H]1C(=O)N(C)c1ccncc1)c1cccc(Cl)c1` [Compound 131] and `CC[C@@H](NC(=O)N1C(=O)[C@H](Cc2ccnc(N(C)C)c2)[C@H]1C(=O)N(C)c1ccncc1)c1cccc(Cl)c1` [Compound 140] fall in the same range of pIC50: 6.00 to 7.00 for the first, 6.00 to 7.00 for the second.

`CC[C@@H](NC(=O)N1C(=O)[C@H](Cc2cc(C)nc(N)c2)[C@H]1C(=O)N(C)c1ccccc1)c1ccc(C)nc1` [Compound 132] and `CC[C@@H](NC(=O)N1C(=O)[C@H](Cc2cc(C)nc(N)c2)[C@H]1C(=O)N(C)c1ccncc1)c1ccc(C)nc1` [Compound 133] fall in the same range of pIC50: 7.00 to 8.00 for the first, 7.00 to 8.00 for the second.

First: CN(C(=O)[C@@H]1[C@@H](Cc2ccnc(N)c2)C(=O)N1C(=O)NCc1cccc(Cl)c1)c1ccccc1 [Compound 137]
Second: CC[C@@H](NC(=O)N1C(=O)[C@H](Cc2ccnc(N(C)C)c2)[C@H]1C(=O)N(C)c1ccncc1)c1ccccc1Cl [Compound 139]
The pIC50 of the first is higher: 7.00 to 8.00 for the first, 6.00 to 7.00 for the second.

`COc1cccc(N(C)C(=O)[C@@H]2[C@@H](Cc3ccnc(N)c3)C(=O)N2C(=O)N[C@@H](C2CCCCC2)C(F)(F)F)c1` [Example 12] was tested, and the pIC50 was 7.00 to 8.00.
